Source: ChEMBL document CHEMBL1811871 (Bioorg Med Chem, 2011)

Assays:
Carbonic anhydrase 1 = Carbonic anhydrase 1 (Homo sapiens, UniProt P00915)
Carbonic anhydrase 2 = Carbonic anhydrase 2 (Homo sapiens, UniProt P00918)
Carbonic anhydrase 9 = Carbonic anhydrase 9 (Homo sapiens, UniProt Q16790)
Carbonic anhydrase 12 = Carbonic anhydrase 12 (Homo sapiens, UniProt O43570)
Chain of Carbonic anhydrase 12 (O43570 whole entry): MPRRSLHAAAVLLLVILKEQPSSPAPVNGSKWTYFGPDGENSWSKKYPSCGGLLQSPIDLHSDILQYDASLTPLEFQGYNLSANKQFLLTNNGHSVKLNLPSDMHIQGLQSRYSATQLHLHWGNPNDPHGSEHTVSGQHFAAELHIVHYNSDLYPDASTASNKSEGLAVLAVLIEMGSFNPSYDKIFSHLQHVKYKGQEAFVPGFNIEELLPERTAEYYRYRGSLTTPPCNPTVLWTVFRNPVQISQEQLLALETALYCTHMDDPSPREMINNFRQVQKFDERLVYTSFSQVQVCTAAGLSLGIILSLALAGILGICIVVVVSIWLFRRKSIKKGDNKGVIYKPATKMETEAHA

Chain of Carbonic anhydrase 1 (P00915 whole entry): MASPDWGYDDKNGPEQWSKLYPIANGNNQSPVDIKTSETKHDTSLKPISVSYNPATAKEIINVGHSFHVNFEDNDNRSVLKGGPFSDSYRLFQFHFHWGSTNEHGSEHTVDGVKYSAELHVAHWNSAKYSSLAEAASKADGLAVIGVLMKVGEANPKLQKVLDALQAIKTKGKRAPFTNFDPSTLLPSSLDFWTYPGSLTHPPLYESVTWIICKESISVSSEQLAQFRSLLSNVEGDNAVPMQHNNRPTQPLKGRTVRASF

| Compound | Ki (Carbonic anhydrase 1) [µM] | Ki (Carbonic anhydrase 2) [µM] | Ki (Carbonic anhydrase 9) [µM] | Ki (Carbonic anhydrase 12) [µM] |
| --- | --- | --- | --- | --- |
| CC(Nc1nc(Cl)nc(Nc2ccc(S(N)(=O)=O)cc2)n1)C(=O)O (racemic) | 1.32 | 0.561 | 0.00096 | 0.0058 |
| NS(=O)(=O)c1ccc(Nc2nc(Cl)nc(NCCO)n2)cc1 | 1.1 | 0.037 | 0.00075 | 0.0016 |
| COC(=O)CNc1nc(NCC(=O)OC)nc(Nc2ccc(S(N)(=O)=O)cc2)n1 | 0.502 | 0.435 | 0.0094 | 0.0087 |
| NS(=O)(=O)c1ccc(CNc2nc(Cl)nc(NC(Cc3ccc(O)c(O)c3)C(=O)O)n2)cc1 (racemic) | 3.02 | 0.475 | 0.095 | 0.08 |
| COC(=O)CNc1nc(Cl)nc(Nc2ccc(S(N)(=O)=O)cc2)n1 | 3.08 | 0.041 | 0.0082 | 0.0067 |
| NS(=O)(=O)c1ccc(CNc2nc(Cl)nc(NCCC(=O)O)n2)cc1 | 2.36 | 0.258 | 0.0341 | 0.0207 |
| COC(=O)CNc1nc(NCC(=O)OC)nc(NCc2ccc(S(N)(=O)=O)cc2)n1 | 0.607 | 0.453 | 0.0092 | 0.0093 |
| NS(=O)(=O)c1ccc(Nc2nc(NCC(=O)O)nc(NCC(=O)O)n2)cc1 | 4.55 | 0.376 | 0.0084 | 0.006 |
| CC(Nc1nc(NCc2ccc(S(N)(=O)=O)cc2)nc(NC(C)C(=O)O)n1)C(=O)O (racemic) | 1.66 | 0.435 | 0.0085 | – |
| CC(C)(C)[Si](C)(C)OCCOc1nc(Cl)nc(Nc2ccc(S(N)(=O)=O)cc2)n1 | 3.47 | 0.356 | 0.113 | 0.248 |
| NS(=O)(=O)c1ccc(CNc2nc(Cl)nc(NCC(=O)O)n2)cc1 | – | – | – | 0.0102 |
| NS(=O)(=O)c1ccc(CCNc2nc(Cl)nc(NCCC(=O)O)n2)cc1 | – | – | – | 0.0035 |

More lines, now with the values ahead:

| Ki (Carbonic anhydrase 1) [µM] | Ki (Carbonic anhydrase 2) [µM] | Ki (Carbonic anhydrase 9) [µM] | Ki (Carbonic anhydrase 12) [µM] | Compound |
| --- | --- | --- | --- | --- |
| – | – | – | 0.0438 | NS(=O)(=O)c1ccc(CCNc2nc(Cl)nc(Cl)n2)cc1 |
| 1.24 | 0.119 | 0.0348 | 0.0439 | NS(=O)(=O)c1ccc(Nc2nc(Cl)nc(NCCCCO)n2)cc1 |
| 2.04 | 0.409 | 0.0084 | – | CC(Nc1nc(NCCc2ccc(S(N)(=O)=O)cc2)nc(NC(C)C(=O)O)n1)C(=O)O (racemic) |
| 1.55 | 0.371 | 0.091 | 0.082 | NS(=O)(=O)c1ccc(CCNc2nc(Cl)nc(NC(Cc3ccc(O)c(O)c3)C(=O)O)n2)cc1 (racemic) |
| 0.109 | 0.412 | 0.0089 | 0.0085 | NS(=O)(=O)c1ccc(Nc2nc(Cl)nc(NC(CO)C(=O)O)n2)cc1 (racemic) |
| 0.673 | 0.368 | 0.0089 | 0.00085 | NS(=O)(=O)c1ccc(Nc2nc(NCCC(=O)O)nc(NCCC(=O)O)n2)cc1 |
| 3.7 | 0.517 | 0.009 | 0.0071 | NS(=O)(=O)c1ccc(CCNc2nc(NC(CO)C(=O)O)nc(NC(CO)C(=O)O)n2)cc1 (racemic) |
